In US20100305139A1, “METHOD OF TREATING ABNORMAL LIPID METABOLISM” (MITSUBISHI TANABE PHARMA CORPORATION, priority 2005, published 2010):
Blank lines part the entries; values can stand above or below the molecule they belong to.

Key:
fat-loaded ZF rat = test: Oral glucose loading in fat-loaded ZF rat; assay type: in vivo
Protocol: Effect of Compound 3 on Increase in Plasma Glucose after Oral Glucose Loading in Fat-Loaded ZF Rat
The test was performed using male ZF rats. The number of experimental examples was 10 for each group. […] The administered volume was 2 mL/kg for both. At 15 min after the administration, a fat emulsion (main component was soybean oil, Intralipos; Otsuka Pharmaceutical Factory, Inc.) was orally loaded at the rate of […]. Furthermore, at 6 hr after the administration of fat emulsion, a mixed carbohydrate solution of starch, sucrose and lactose (mixing ratio 6:3:1) was orally administered at 3.5 g/kg. The volume administered of each of the fat emulsion and the carbohydrate solution was 10 mL/kg. Blood samples were sequentially collected, and plasma glucose concentration was measured.

Wistar rat = test: Fasting blood sugar level in Wistar rat
ZF rat = test: Oral fat loading in ZF rat (abnormal lipid and glucose metabolism); assay type: in vivo
Protocol: Effect of Compound 3 on Abnormal Lipid Metabolism and Abnormal Glucose Metabolism after Oral Fat Loading in ZF Rat
The test was performed using male ZF rats. The rats were divided into two groups (10 rats/group). Compound 3 (1 mg/kg) or a 0.5% hydroxypropylmethylcellulose solution, which was a vehicle used to dissolve the compound, was administered by gavage to each of the rats. The administered volume was 2 mL/kg for both. At 15 min after the administration, a fat emulsion (main component was soybean oil, Intralipos; Otsuka Pharmaceutical Factory, Inc.) was orally loaded at the rate of 10 mL/kg. Blood samples were sequentially collected, and plasma TG concentration, free fatty acids concentration, glucose concentration and insulin concentration were measured.

[1] = system: rats with type 2 diabetes; conditions: non-patent reference 7; cited from earlier work
[2] = ZF rat, summary statement, dose not given

Structure (SMILES): Br.Cc1cc(N2CCN([C@@H]3CN[C@H](C(=O)N4CCSC4)C3)CC2)n(-c2ccccc2)n1 [compound 1, 3-{(2S,4S)-4-[4-(3-methyl-1-phenyl-1H-pyrazol-5-yl)piperazin-1-yl]pyrrolidin-2-ylcarbonyl}thiazolidine hydrobromide]
blood glucose increase after glucose loading in an oral glucose loading test after fat loading (fat-loaded ZF rat; [2]): markedly suppresses
hypoglycemia (Wistar rat; summary statement, unlike insulin secretagogue, dose not given): does not induce hypoglycemia
blood glucose increase after the fat loading (ZF rat; [2]): suppresses
increase in the plasma TG concentration after fat loading (ZF rat; obese Zucker fatty rat having insulin resistance, summary statement, dose not given): suppresses

plasma glucose concentration (hypoglycemia) (Wistar rat; overnight-fasted male Wistar rats, gavage, nateglinide 10, 30, 100 or 300 mg/kg, maximum change from value before drug administration (FIG. 6)): induced hypoglycemia
plasma insulin concentration (Wistar rat; overnight-fasted male Wistar rats, gavage, nateglinide 10, 30, 100 or 300 mg/kg, maximum change from value before drug administration (FIG. 7)): increased
Structure (SMILES): CC(C)[C@H]1CC[C@H](C(=O)N[C@H](Cc2ccccc2)C(=O)O)CC1 [nateglinide, (−)-N-(trans-4-isopropylcyclohexylcarbonyl)-D-phenylalanine, reference compound]
increase in blood lipid by fat loading [1]: suppresses

Structure (SMILES): Br.Br.Br.Br.Br.Cc1cc(N2CCN([C@@H]3CN[C@H](C(=O)N4CCSC4)C3)CC2)n(-c2ccccc2)n1.Cc1cc(N2CCN([C@@H]3CN[C@H](C(=O)N4CCSC4)C3)CC2)n(-c2ccccc2)n1 [compound 3, 3-{(2S,4S)-4-[4-(3-methyl-1-phenyl-1H-pyrazol-5-yl)piperazin-1-yl]pyrrolidin-2-ylcarbonyl}thiazolidine 2.5 hydrobromide]
increase in the baseline plasma glucose concentration by fat loading (fat-loaded ZF rat; male fat-loaded ZF rats, 1 mg/kg by gavage 15 min before fat emulsion (FIG. 5)): suppressed
increase in the plasma glucose concentration after oral glucose loading (fat-loaded ZF rat; male fat-loaded ZF rats, 1 mg/kg by gavage, mixed carbohydrate 3.5 g/kg orally at 6 hr after fat loading (FIG. 5)): suppressed
fasting plasma glucose concentration (Wistar rat; overnight-fasted male Wistar rats, gavage, dose of 100 mg/kg, maximum change from value before drug administration (FIG. 6)): no effect
fasting insulin concentration (Wistar rat; overnight-fasted male Wistar rats, gavage, dose of 100 mg/kg, maximum change from value before drug administration (FIG. 7)): no effect
increase in the plasma TG concentration after fat loading (ZF rat; male ZF rats, 1 mg/kg by gavage 15 min before oral fat emulsion 10 mL/kg, change from value before fat loading (FIG. 1)): suppressed
increase in the plasma free fatty acids concentration after fat loading (ZF rat; male ZF rats, 1 mg/kg by gavage 15 min before oral fat emulsion 10 mL/kg, change from value before fat loading (FIG. 2)): suppressed
increase in the plasma glucose concentration after fat loading (ZF rat; male ZF rats, 1 mg/kg by gavage 15 min before oral fat emulsion 10 mL/kg, change from value before fat loading (FIG. 3)): suppressed
plasma insulin concentration after fat loading (ZF rat; male ZF rats, 1 mg/kg by gavage 15 min before oral fat emulsion 10 mL/kg, change from value before fat loading (FIG. 4)): transiently increased
